According to patent publication US8013163B2 (Astex Therapeutics Limited, priority 2005, dated 2011):
Counter-ions that a name gives are not always drawn.

How the values were obtained:
[1] = Solubility of the mesylate salt in buffered solutions (HPLC assay); assay type: physicochemical; settings: acetate buffer, pH 4.6, aqueous buffer, thermodynamic from solid
Procedure: An investigation into the solubility of the mesylate salt of Example 1 in various buffering systems was carried out at ambient temperature and at 4° C. In a first set of experiments, the buffers selected were 200 mM succinate pH 5.5, citrate pH 5.5, and Tris/maleate pH 5.5, 6.5 and 7.5. A second set of buffers utilised included a 200 mM acetate pH 4.6, glycine/methanesulphonic acid pH 4.6 and glycine pH 5.5.
This buffer was prepared by dissolving 4.44 g sodium acetate in 200 ml water. A volume (50 ml) of this solution was titrated with 0.20 M acetic acid solution ([…] in 200 ml water) and made up to 200 ml with water. A 0.20 M acetate buffer solution of pH 4.6 was prepared.
With each pH and buffer system, two experiments were performed, one at ambient temperature and one at 4° C. In each experiment, to 4.0 ml buffer solution was added a nominal 220 mg of the mesylate salt and the solution mixture was stirred. The stirring was stopped after 3 hours, the solution filtered through a PVDF 0.22 μm membrane filter, diluted in sample diluent and assayed for mesylate salt content by HPLC. Throughout the experiments, the mesylate salt content of each sample was calculated using single point calibration each time.

[2] = Solubility of the mesylate salt in aqueous solution at pH 1 to 11 (UV-Vis assay); assay type: physicochemical
Procedure: Solutions were prepared by titrating standard hydrochloric acid with dilute sodium hydroxide solution to a desired pH. […] These solutions were then used to assess the solubility of 4-(2,6-dichlorobenzoylamino)-1/i-pyrazole-3-carboxylic acid piperidin-4-ylamide methanesulphonate.
In each experiment, 150 mg of the methanesulphonate salt was weighed into a 5 ml clear vial and 3-4 ml of a solution of a given pH was added. […] In each case, the solution was then filtered through a 0.22 μm PVDF filter, the pH of the clear solution obtained was recorded, and the solution was assayed for methanesulphonate salt content using a UV-Vis spectrophotometer and standard solutions of the salt.

HCT-1 16 cells = assay: Anti-proliferative activity (Alamar Blue assay); assay type: cell-based; settings: Homo sapiens, HCT-116, 72 hours
Procedure: The anti-proliferative activities of a compound can be determined by measuring the ability of the compound to inhibition of cell growth in a number of cell lines. Inhibition of cell growth is measured using the Alamar Blue assay (Nociari, M. M, Shalev, A., Benias, P., Russo, C. Journal of Immunological Methods 1998, 213, 157-167). The method is based on the ability of viable cells to reduce resazurin to its fluorescent product resorufin. For each proliferation assay cells are plated onto 96 well plates and allowed to recover for 16 hours prior to the addition of inhibitor compounds for a further 72 hours. At the end of the incubation period 10% (v/v) Alamar Blue is added and incubated for a further 6 hours prior to determination of fluorescent product at […]. In the case of the non-proliferating cell assay cells are maintained at confluence for 96 hour prior to the addition of inhibitor compounds for a further 72 hours. The number of viable cells is determined by Alamar Blue assay as before. Cell lines can be obtained from the ECACC (European Collection of cell Cultures).

[3] = Stability of acetate buffered salt solution (autoclaving, heating, freeze-thaw); assay type: physicochemical
Procedure: Autoclaving at 121° C. for 15 minutes, followed by heating the solution further at 40° C., 55° C. or 75° C. for 10-12 days, were carried out on the acetate buffered salt solution.

[4] = Stability trial of methanesulphonate salt at 40° C./75% relative humidity for six months; assay type: physicochemical
Procedure: Samples of the methanesulphonate salt of Example 1 were stored in sealed bags inside a sealed container at a temperature of 40° C. and in an atmosphere of 75% relative humidity for a period of six months. At periods of 1 month, 3 months and 6 months, various tests were carried out to determine whether any changes to the purity or physical state of the salt had occurred. The tests were as follows:
(a) Visual examination of the colour and physical appearance of the salt.
(b) Fourier Transform Infra Red (FTIR) spectroscopy—comparison with reference standard spectrum.
(c) Determination of melting point by differential scanning calorimetry (DSC).
(d) Determination of water content by a coulometric method using the coulometric reagent AKX.
(e) Analysis of impurities by HPLC.

[5] = Gravimetric Vapour Sorption (GVS) study; assay type: physicochemical
Procedure: (i) Gravimetric Vapour Sorption (GVS) studies were carried out to investigate the behaviour of the mesylate salt in conditions of varying humidity. The mesylate salt used in the studies was prepared from the hydrochloride salt (see Example 11) by the following method.
Samples of the mesylate salt produced by the method described above were run on a Hiden IGASorp moisture sorption analyser running CFRSorp software. The sample sizes were typically 10 mg. Moisture adsorption-desorption isotherms were performed as set out in the following table:
A double cycle was run using a sample of 12.92 mg of the mesylate salt. […] However, provided that the salt is not exposed to relative humidities of more than 80%, the water uptake is less than 2.6% w/w. Importantly, water which was taken up during the adsorption stage was lost during the desorption state indicating the uptake of water is a surface effect.

[6] = Exposure at 40° C./approximately 75% relative humidity with XRPD and HPLC analysis; assay type: physicochemical; settings: approximately 75% relative humidity
Procedure: (ii) In a separate test, approximately 10 mg of the mesylate salt as prepared above was pressed flat onto a glass slide to achieve a high surface area and placed in a dessicator containing a saturated aqueous solution of sodium chloride. This in turn was placed in an incubator held at 40° C. to provide an atmosphere of approximately 75% relative humidity. The sample was removed on 8 and 18 days and the XRPD profiles of the sample at these times were compared to the XRPD profile of the salt prior to commencement of the test.

[7] = system: malignant cells from B-cell chronic lymphocytic leukemia (B-CLL); settings: in vitro; cited from earlier work
[8] = 40° C./75% relative humidity, t = 0
[9] = 40° C./75% relative humidity, t = 1 month
[10] = 40° C./75% relative humidity, t = 3 months
[11] = 40° C./75% relative humidity, t = 6 months

## O=C(NC1CCNCC1)c1n[nH]cc1NC(=O)c1c(Cl)cccc1Cl [mesylate salt, 4-(2,6-dichlorobenzoylamino)-1H-pyrazole-3-carboxylic acid piperidin-4-ylamide methanesulphonate]
[1]; 4 °C, acetate buffer 200 mM at 4° C., initial pH 4.6, final pH 4.6, read-out: [mesylate salt] solubility
  solubility at 3 h: 37.2 mg/mL
[1]; acetate buffer 200 mM at ambient temperature, initial pH 4.6, final pH 4.5, read-out: [Mesylate salt] solubility
  solubility at 3 h: 30.7 mg/mL
[1]; acetic acid/sodium acetate buffer, solution pH approximately 4.6, read-out: solubility
  solubility at 3 h: ~35 mg/mL
[1]; in acetate buffer, read-out: solubility of the mesylate salt
  solubility at 3 h: 32 to 37 mg/mL
[2]; aqueous solution, 4 °C, pH 0.26, simulated gastric fluid, thermodynamic from solid, initial pH 0.26, final pH 0.26
  solubility at 3 h: 9.85 mg/mL
[2]; aqueous solution, 4 °C, pH 1, simulated gastric fluid, thermodynamic from solid, initial pH 1.00, final pH 1.00
  solubility at 3 h: 39.4 mg/mL
[2]; aqueous solution, 4 °C, pH 2.51, aqueous buffer, thermodynamic from solid, initial pH 2.51, final pH 2.51
  solubility at 3 h: 41.5 mg/mL
[2]; aqueous solution, 4 °C, pH 4.99, aqueous buffer, thermodynamic from solid, initial pH 4.99, final pH 4.99
  solubility at 3 h: 42.4 mg/mL
[2]; aqueous solution, 4 °C, pH 7.34, aqueous buffer, thermodynamic from solid, initial pH 7.34, final pH 7.34
  solubility at 3 h: 45.9 mg/mL
[2]; aqueous solution, 4 °C, pH 7.4, aqueous buffer, thermodynamic from solid, initial pH 9.04, final pH 7.40
  solubility at 3 h: 30.4 mg/mL
[2]; aqueous solution, 4 °C, pH 7.69, aqueous buffer, thermodynamic from solid, initial pH 7.69, final pH 7.69
  solubility at 3 h: 37.9 mg/mL
[2]; aqueous solution, 4 °C, pH 7.9, aqueous buffer, thermodynamic from solid, initial pH 10.97, final pH 7.90
  solubility at 3 h: 30.9 mg/mL
[2]; aqueous solution, 4 °C, pH 8.17, aqueous buffer, thermodynamic from solid, initial pH 8.17, final pH 8.17
  solubility at 3 h: 43.2 mg/mL
[2]; aqueous solution, pH 0.37, simulated gastric fluid, thermodynamic from solid, ambient temperature, initial pH 0.26, final pH 0.37
  solubility at 3 h: 15.7 mg/mL
[2]; aqueous solution, pH 0.504, simulated gastric fluid, thermodynamic from solid, Solution 1 after 6 days in the laboratory, precipitate filtered, pH 0.504 / 0.50
  solubility at 6 days: 13.9 mg/mL
[2]; aqueous solution, pH 1.06, simulated gastric fluid, thermodynamic from solid, ambient temperature, initial pH 1.00, final pH 1.06
  solubility at 3 h: 40.3 mg/mL
[2]; aqueous solution, pH 3, aqueous buffer, thermodynamic from solid, ambient temperature, initial pH 2.51, final pH 3.00
  solubility at 3 h: 44.9 mg/mL
[2]; aqueous solution, pH 6.73, aqueous buffer, thermodynamic from solid, ambient temperature, initial pH 4.99, final pH 6.73
  solubility at 3 h: 44.3 mg/mL
[2]; aqueous solution, pH 7.3, aqueous buffer, thermodynamic from solid, ambient temperature, initial pH 7.34, final pH 7.30
  solubility at 3 h: 44.5 mg/mL
[2]; aqueous solution, pH 7.4, aqueous buffer, thermodynamic from solid, ambient temperature, initial pH 8.17, final pH 7.40
  solubility at 3 h: 44.5 mg/mL
[2]; aqueous solution, pH 7.4, aqueous buffer, thermodynamic from solid, ambient temperature, initial pH 9.04, final pH 7.4
  solubility at 3 h: 35.4 mg/mL
[2]; aqueous solution, pH 7.6, aqueous buffer, thermodynamic from solid, ambient temperature, initial pH 10.97, final pH 7.6
  solubility at 3 h: 34.6 mg/mL
[2]; aqueous solution, pH 7.9, aqueous buffer, thermodynamic from solid, ambient temperature, initial pH 7.69, final pH 7.90
  solubility at 3 h: 42.1 mg/mL
[2]; pH>7 and pH<3, ambient temperature
  behaviour of solution on standing: precipitation of the salt was observed on standing
HCT-1 16 cells
  IC50: 110 nM
[3]; acetate buffered salt solution
  precipitation in freeze-thaw stability tests: did not result in precipitation
  stability of solution pH and salt in freeze-thaw tests: stable
[3]; acetate buffered solution, autoclaving at 121° C. for 15 minutes, then 40° C., 55° C. or 75° C. for 10-12 days
  stability of solution pH and salt: stable
[4]; 40° C., 75% relative humidity, six months
  overall stability: good stability
[4]; [8]
  (a) Description: Off-white solid
  (b) Identity by FTIR: Conforms to
  (c) Melting point by DSC, melting endotherm: 367.7 °C
  (d) Water content: <0.1% w/w
  (e) Impurities (by HPLC) Total impurities: 0.52% area
  Chemical purity: 99.48% area
  Impurity RRT 0.812 (by HPLC): 0.07% area
  Impurity RRT 1.196 (by HPLC): 0.01% area
  Impurity RRT 1.226 (by HPLC): 0.02% area
  Impurity RRT 1.303 (by HPLC): 0.02% area
  Impurity RRT 1.318 (by HPLC): 0.03% area
  Impurity RRT 1.484 (by HPLC): 0.15% area
  Impurity RRT 1.526 (by HPLC): 0.03% area
  Impurity RRT 1.680 (by HPLC): 0.19% area
[4]; [9]
  (a) Description: Off-white solid
  (b) Identity by FTIR: Conforms to
  (c) Melting point by DSC, melting endotherm: 368.3 °C
  (d) Water content: <0.1% w/w
  (e) Impurities (by HPLC) Total impurities: 0.49% area
  Chemical purity: 99.51% area
  Impurity RRT 0.812 (by HPLC): 0.07% area
  Impurity RRT 1.196 (by HPLC): 0.02% area
  Impurity RRT 1.303 (by HPLC): 0.06% area
  Impurity RRT 1.484 (by HPLC): 0.17% area
  Impurity RRT 1.680 (by HPLC): 0.17% area
[4]; [10]
  (a) Description: Off-white solid
  (b) Identity by FTIR: Conforms to
  (c) Melting point by DSC, melting endotherm: 375.5 °C
  (d) Water content: <0.1% w/w
  (e) Impurities (by HPLC) Total impurities: 0.50% area
  Chemical purity: 99.50% area
  Impurity RRT 0.812 (by HPLC): 0.06% area
  Impurity RRT 1.226 (by HPLC): 0.02% area
  Impurity RRT 1.318 (by HPLC): 0.04% area
  Impurity RRT 1.484 (by HPLC): 0.17% area
  Impurity RRT 1.526 (by HPLC): 0.04% area
  Impurity RRT 1.680 (by HPLC): 0.17% area
[4]; [11]
  (a) Description: Off-white solid
  (b) Identity by FTIR: Conforms to
  (c) Melting point by DSC, melting endotherm: 369.1 °C
  (d) Water content: <0.1% w/w
  (e) Impurities (by HPLC) Total impurities: 0.50% area
  Chemical purity: 99.50% area
  Impurity RRT 0.812 (by HPLC): 0.06% area
  Impurity RRT 1.226 (by HPLC): 0.02% area
  Impurity RRT 1.318 (by HPLC): 0.04% area
  Impurity RRT 1.484 (by HPLC): 0.17% area
  Impurity RRT 1.526 (by HPLC): 0.03% area
  Impurity RRT 1.680 (by HPLC): 0.17% area
  Impurity RRT 1.682 (by HPLC): 0.01% area
[5]; not exposed to relative humidities of more than 80%
  water uptake (GVS): less than 2.6 % w/w
[5]; over the range 0% relative humidity to 90% relative humidity
  water picked up (GVS isotherm): approximately 4 % in weight
[6]; 8 and 18 days
  changes in XRPD profile: No changes were observed
[6]; up to 18 days
  degradation by HPLC analysis: no degradation

## CC[C@H](CO)Nc1nc(NCc2ccccc2)c2ncn(C(C)C)c2n1 [CYC 202]
[7]
  induction of apoptosis: induce in vitro apoptosis

## CN1CC[C@H](c2c(O)cc(O)c3c(=O)cc(-c4ccccc4Cl)oc23)[C@H](O)C1 [Flavopiridol]
[7]
  induction of apoptosis: induce in vitro apoptosis
